Patent US8354225B1, “Amplification of oligonucleotides containing non-standard nucleobases” (priority 2004, dated 2013)

What was measured:
[1] = cited from earlier work
[2] = system: d(puADA) in the template (T3); test: Paused-extension screen of polymerases; format: biochemical; settings: template T3, primer P3, dNTPs, 72° C., 15 seconds
Procedure: FIG. 6. Use of Taq and DeepVent (DV) exo^+ polymerases as sequencing tools. Both polymerases were incubated with template T3, primer P3, and dNTPs.P=primer alone, 19 nts in length. […] Deep Vent exo appears to be degrading the primer, and perhaps the product as well.
Radiolabeled primer P3 (1 pmol) was mixed with template T3 (2 pmol), Thermopol buffer (1.5 μL, 10×), dATP, dCTP, dTTP, dGTP (final conc. 10 μM each), and water to a final volume of 14 μL. The mixture was heated to 95° C. for 10 min. and allowed to cool to ambient for 1 hour. The respective polymerase (Taq, Vent, Deep Vent, Vent exo^−, or Deep Vent exo−) was added (1 μL, 2 U/μL) and the reaction incubated at 72° C. for 15 seconds. The reaction was quenched with 20 mM EDTA in PAGE loading buffer (15 μL) and subsequently analyzed by electrophoresis on a 20% PAGE gel. The gel was analyzed using the MolecularImager software.

O=c1[nH]c(=O)c2[nH]cnc2[nH]1 [pu(ADA), xanthine]
pKa of the heterocycle (acid) ([1]; free heterocycle): ca. 5.7

Nc1ccnc(N)n1 [py(DAD), 2,4-diaminopyrimidine]
pKa of the conjugate acid ([1]; protonated heterocycle): ≈ 6.7

Taq polymerase: Taq polymerase used as sequencing tool
elongation upon encountering dX / d(puADA) in the template [2]: terminates the elongation of a primer
elongation upon encountering dX / d(puADA) in the template ([2]; listed as Taq): abort elongation
